In the assay the target is T1, Human BACH1 (Homo sapiens, UniProt O14867).
T1 construct: 10×HIS-GP-BACH1(aa179-736)-Thrombin-FLAG; 10xHis (N); GP linker (Gly-Pro) (N); Thrombin cleavage site (C); FLAG (C); host or cells: Sf9 insect cells
T1 sequence (O14867 179-736): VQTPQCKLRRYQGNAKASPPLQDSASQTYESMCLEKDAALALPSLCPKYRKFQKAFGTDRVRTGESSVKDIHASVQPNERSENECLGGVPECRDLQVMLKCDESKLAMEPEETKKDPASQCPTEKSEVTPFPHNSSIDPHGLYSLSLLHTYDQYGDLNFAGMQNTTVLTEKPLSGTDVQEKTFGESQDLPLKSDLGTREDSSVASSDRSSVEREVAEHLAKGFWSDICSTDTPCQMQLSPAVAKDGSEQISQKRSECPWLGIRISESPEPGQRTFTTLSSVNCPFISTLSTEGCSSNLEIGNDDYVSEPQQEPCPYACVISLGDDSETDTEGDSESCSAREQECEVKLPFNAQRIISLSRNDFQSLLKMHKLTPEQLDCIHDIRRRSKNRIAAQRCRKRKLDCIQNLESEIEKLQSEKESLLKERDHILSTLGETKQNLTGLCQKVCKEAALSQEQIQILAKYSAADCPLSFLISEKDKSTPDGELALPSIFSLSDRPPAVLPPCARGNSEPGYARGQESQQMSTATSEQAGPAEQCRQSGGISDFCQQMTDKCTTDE
The assay is described as follows: Microscale thermophoresis (MST) assay / Bach 1 binding assay. Particulars: 10 nM fluorescently labeled BACH1(aa179-736), 25° C. As to the method:
Example 146. Microscale Thermophoresis (MST) Assay/Bach 1 Binding Assay
Outline of Protein Expression/Production
Human BACH1 (construct-ID: 10×HIS-GP-BACH1(aa179-736)-Thrombin-FLAG) was expressed in Sf9 insect cells. Protein purification was performed using affinity chromatography, followed by size-exclusion chromatography. Quality of resulting protein was judged using SDS-PAGE analysis.
The MST technology is based on measurement of protein movement along a temperature gradient. Thereby, fluorescently labeled protein is loaded into capillaries, where an infrared laser heats a small volume. Before and during heating, fluorescent intensity is measured at the site of irradiation and the loss of fluorescence in the IR laser focus is quantified.
Two major factors contribute to change of fluorescence signal. First of all, the so-called TRIC (Temperature Related Intensity Change) effect is caused by the temperature-dependency of fluorophore's quantum yield. Herein, the extent of the temperature dependence depends on the chemical environment, which may be changed by the binding of a ligand (e.g. compound, peptide) to the target. Moreover, Kd value between ligand and target can depend on temperature. Second, thermophoresis, which is defined as movement of fluorescent molecules along temperature gradient, is a major contributor to change of fluorescence. Hereby, protein movement along the gradient depends on hydrodynamic radius, charge and hydration shell. These properties can change upon association of the labeled protein with another species, e.g. compound. Thereby, MST detects the differences in protein movement with increasing ligand concentration: from this, the fraction of ligand bound protein and a Kd value can be determined.
For Kd determination of compounds binding BACH1, the following protocol was applied: 10×HIS-GP-BACH1(aa179-736)-Thrombin-FLAG (expressed and purified at Proteros) was fluorescently labeled via its lysine-residues (2nd gen NHS-NT.647 dye).
Experiments were performed using the experimental device Monolith NT.115 Pico, NanoTemper Technologies, with MST power set to medium and excitation power set to 2% at a reaction temperature of 25° C.
10 nM fluorescently labeled BACH1 was applied to reaction buffer containing 50 mM HEPES pH 8.0, 100 mM NaCl, 5% glycerol, 0.05% Tween20 and 1 mM DTT in a reaction volume of 8 μL using Monolith NT.115 Premium Capillaries. Compounds were applied at a maximal concentration of 103 μM with 15 subsequent factor 2 dilutions.

As usually defined, the Kd is the equilibrium constant for the complex coming apart. A lower Kd goes with tighter binding. Turning to `Cn1c(Nc2nc3ccccc3o2)nc2cc(C(=O)NCCOCCO)ccc21` [Example 17, 2-(benzo[d]oxazol-2-ylamino)-N-(2-(2-hydroxyethoxy)ethyl)-1-methyl-1H-benzo[d]imidazole-5-carboxamide], binding was put at a Kd of 0.25 µM. `COCCNC(=O)c1ccc2c(c1)nc(Nc1nc3ccc(OCCOC)cc3o1)n2C` [Example 56, 2-((6-(2-methoxyethoxy)benzo[d]oxazol-2-yl)amino)-N-(2-methoxyethyl)-1-methyl-1H-benzo[d]imidazole-5-carboxamide] registered a Kd of 0.25 µM.

Values taken from US10766888B1, “HMOX1 inducers” (Mitobridge Inc., priority 2019, dated 2020).
